Test results as given in patent publication US5712397A, “Amino acid derivatives, processes for preparing them and pharmaceutical compositions containing these compounds” (Boehringer Ingelheim GmbH, priority 1994, dated 1998).

Molecular target: T1, NK1-receptor (substance P-receptor) (Homo sapiens, UniProt P25103)
T1 construct: expressed in transfected cells; host or cells: IM-9 human lymphoblastoma cells
Assay: NK1-receptor affinity: displacement of 125I-labelled substance P on human lymphoblastoma cells (IM-9) with cloned NK1-receptors
Format: binding
Protocol: The receptor affinity for the NK1 -receptor (substance P-receptor) was determined on human lymphoblastoma cells (IM-9) with cloned NK1 -receptors, by measuring the displacement of ^125 I-labelled substance p.

T1 sequence (P25103 whole entry): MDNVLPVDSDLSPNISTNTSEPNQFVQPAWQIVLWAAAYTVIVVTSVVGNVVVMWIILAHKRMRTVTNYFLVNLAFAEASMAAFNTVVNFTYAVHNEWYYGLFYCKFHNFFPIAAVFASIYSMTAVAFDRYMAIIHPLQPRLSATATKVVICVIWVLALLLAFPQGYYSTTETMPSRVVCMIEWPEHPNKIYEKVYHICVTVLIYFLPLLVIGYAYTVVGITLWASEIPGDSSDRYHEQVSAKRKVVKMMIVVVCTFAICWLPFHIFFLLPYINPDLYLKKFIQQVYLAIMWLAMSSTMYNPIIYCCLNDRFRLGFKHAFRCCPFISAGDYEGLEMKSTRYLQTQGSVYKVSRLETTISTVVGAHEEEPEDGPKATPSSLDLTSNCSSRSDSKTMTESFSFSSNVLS

## COc1cc2c(cc1OC)N(Cc1ccccc1Cl)C(=O)C(NC(=O)[C@@H]1C[C@@H](O)CN1C(=O)c1cn(C)c3ccccc13)C2 (single isomer, unassigned) [Example 1]
  IC50: 400 pM

## CCc1ccccc1CN1C(=O)C(NC(=O)[C@@H]2C[C@@H](O)CN2C(=O)c2cn(C)c3ccccc23)Cc2cc(OC)c(OC)cc21 (single isomer, unassigned) [Example 6]
  IC50: 750 pM
